SILAC ratio (compound/DMSO) data for one compound are collected here from PubChem BioAssay AID651979 (The Scripps Research Institute Molecular Screening Center, 2013).

Holding throughout (experiment): PubChem AID 651979
In assay [1] the target is Acyl-protein thioesterase 2 (Homo sapiens) (UniProt O95372). Particulars: HEK293T SILAC ABPP, NHU5 probe, LC-MS/MS ratio; LYPLA2; at 5 µM; active compounds read low.
In another assay the test system is TPP2. Particulars: HEK293T SILAC ABPP, NHU5 probe, LC-MS/MS ratio, at 5 µM, active compounds read low.
In another assay the test system is ABHD6. Particulars: HEK293T SILAC ABPP, NHU5 probe, LC-MS/MS ratio, at 5 µM, active compounds read low.
Another assay has as its system ESD. Particulars: HEK293T SILAC ABPP, NHU5 probe, LC-MS/MS ratio, at 5 µM, active compounds read low.
A further assay concerns CTSA. Particulars: HEK293T SILAC ABPP, NHU5 probe, LC-MS/MS ratio, at 5 µM, active compounds read low.
For another assay, the system named is DDHD1. Particulars: HEK293T SILAC ABPP, NHU5 probe, LC-MS/MS ratio, at 5 µM, active compounds read low.
The target in assay [2] is Acylamino-acid-releasing enzyme (Homo sapiens) (UniProt P13798). Particulars: HEK293T SILAC ABPP, NHU5 probe, LC-MS/MS ratio; APEH; at 5 µM; active compounds read low.
Acylamino-acid-releasing enzyme (Homo sapiens), sequence (P13798 whole entry, looked up): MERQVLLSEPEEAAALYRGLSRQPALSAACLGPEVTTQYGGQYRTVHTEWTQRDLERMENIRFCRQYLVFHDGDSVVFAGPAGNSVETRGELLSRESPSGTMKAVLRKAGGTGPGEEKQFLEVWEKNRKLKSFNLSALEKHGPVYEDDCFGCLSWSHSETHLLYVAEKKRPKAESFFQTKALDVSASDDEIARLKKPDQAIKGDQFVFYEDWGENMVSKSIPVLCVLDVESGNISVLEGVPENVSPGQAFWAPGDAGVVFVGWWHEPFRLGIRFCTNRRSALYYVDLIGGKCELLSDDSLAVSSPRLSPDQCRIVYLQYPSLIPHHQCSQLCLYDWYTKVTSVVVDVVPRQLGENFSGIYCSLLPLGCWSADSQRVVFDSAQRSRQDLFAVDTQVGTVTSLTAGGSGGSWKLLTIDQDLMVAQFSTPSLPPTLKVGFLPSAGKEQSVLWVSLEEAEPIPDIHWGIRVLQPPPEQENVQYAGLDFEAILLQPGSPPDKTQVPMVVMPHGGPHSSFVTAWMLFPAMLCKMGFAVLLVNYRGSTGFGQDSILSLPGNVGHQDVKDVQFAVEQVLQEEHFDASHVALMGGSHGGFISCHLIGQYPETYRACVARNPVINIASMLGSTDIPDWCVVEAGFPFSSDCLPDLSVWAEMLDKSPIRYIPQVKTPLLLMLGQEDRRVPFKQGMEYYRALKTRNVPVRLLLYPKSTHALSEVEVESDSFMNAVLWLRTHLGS
For a further assay, the system named is ABHD10. Particulars: HEK293T SILAC ABPP, NHU5 probe, LC-MS/MS ratio, at 5 µM, active compounds read low.
In another assay the test system is PREP. Particulars: HEK293T SILAC ABPP, NHU5 probe, LC-MS/MS ratio, at 5 µM, active compounds read low.
Assay [3] deals with Fatty acid synthase (Homo sapiens) (UniProt P49327). Particulars: HEK293T SILAC ABPP, NHU5 probe, LC-MS/MS ratio; FASN; at 5 µM; active compounds read low.
Fatty acid synthase (Homo sapiens), sequence (P49327 whole entry, looked up): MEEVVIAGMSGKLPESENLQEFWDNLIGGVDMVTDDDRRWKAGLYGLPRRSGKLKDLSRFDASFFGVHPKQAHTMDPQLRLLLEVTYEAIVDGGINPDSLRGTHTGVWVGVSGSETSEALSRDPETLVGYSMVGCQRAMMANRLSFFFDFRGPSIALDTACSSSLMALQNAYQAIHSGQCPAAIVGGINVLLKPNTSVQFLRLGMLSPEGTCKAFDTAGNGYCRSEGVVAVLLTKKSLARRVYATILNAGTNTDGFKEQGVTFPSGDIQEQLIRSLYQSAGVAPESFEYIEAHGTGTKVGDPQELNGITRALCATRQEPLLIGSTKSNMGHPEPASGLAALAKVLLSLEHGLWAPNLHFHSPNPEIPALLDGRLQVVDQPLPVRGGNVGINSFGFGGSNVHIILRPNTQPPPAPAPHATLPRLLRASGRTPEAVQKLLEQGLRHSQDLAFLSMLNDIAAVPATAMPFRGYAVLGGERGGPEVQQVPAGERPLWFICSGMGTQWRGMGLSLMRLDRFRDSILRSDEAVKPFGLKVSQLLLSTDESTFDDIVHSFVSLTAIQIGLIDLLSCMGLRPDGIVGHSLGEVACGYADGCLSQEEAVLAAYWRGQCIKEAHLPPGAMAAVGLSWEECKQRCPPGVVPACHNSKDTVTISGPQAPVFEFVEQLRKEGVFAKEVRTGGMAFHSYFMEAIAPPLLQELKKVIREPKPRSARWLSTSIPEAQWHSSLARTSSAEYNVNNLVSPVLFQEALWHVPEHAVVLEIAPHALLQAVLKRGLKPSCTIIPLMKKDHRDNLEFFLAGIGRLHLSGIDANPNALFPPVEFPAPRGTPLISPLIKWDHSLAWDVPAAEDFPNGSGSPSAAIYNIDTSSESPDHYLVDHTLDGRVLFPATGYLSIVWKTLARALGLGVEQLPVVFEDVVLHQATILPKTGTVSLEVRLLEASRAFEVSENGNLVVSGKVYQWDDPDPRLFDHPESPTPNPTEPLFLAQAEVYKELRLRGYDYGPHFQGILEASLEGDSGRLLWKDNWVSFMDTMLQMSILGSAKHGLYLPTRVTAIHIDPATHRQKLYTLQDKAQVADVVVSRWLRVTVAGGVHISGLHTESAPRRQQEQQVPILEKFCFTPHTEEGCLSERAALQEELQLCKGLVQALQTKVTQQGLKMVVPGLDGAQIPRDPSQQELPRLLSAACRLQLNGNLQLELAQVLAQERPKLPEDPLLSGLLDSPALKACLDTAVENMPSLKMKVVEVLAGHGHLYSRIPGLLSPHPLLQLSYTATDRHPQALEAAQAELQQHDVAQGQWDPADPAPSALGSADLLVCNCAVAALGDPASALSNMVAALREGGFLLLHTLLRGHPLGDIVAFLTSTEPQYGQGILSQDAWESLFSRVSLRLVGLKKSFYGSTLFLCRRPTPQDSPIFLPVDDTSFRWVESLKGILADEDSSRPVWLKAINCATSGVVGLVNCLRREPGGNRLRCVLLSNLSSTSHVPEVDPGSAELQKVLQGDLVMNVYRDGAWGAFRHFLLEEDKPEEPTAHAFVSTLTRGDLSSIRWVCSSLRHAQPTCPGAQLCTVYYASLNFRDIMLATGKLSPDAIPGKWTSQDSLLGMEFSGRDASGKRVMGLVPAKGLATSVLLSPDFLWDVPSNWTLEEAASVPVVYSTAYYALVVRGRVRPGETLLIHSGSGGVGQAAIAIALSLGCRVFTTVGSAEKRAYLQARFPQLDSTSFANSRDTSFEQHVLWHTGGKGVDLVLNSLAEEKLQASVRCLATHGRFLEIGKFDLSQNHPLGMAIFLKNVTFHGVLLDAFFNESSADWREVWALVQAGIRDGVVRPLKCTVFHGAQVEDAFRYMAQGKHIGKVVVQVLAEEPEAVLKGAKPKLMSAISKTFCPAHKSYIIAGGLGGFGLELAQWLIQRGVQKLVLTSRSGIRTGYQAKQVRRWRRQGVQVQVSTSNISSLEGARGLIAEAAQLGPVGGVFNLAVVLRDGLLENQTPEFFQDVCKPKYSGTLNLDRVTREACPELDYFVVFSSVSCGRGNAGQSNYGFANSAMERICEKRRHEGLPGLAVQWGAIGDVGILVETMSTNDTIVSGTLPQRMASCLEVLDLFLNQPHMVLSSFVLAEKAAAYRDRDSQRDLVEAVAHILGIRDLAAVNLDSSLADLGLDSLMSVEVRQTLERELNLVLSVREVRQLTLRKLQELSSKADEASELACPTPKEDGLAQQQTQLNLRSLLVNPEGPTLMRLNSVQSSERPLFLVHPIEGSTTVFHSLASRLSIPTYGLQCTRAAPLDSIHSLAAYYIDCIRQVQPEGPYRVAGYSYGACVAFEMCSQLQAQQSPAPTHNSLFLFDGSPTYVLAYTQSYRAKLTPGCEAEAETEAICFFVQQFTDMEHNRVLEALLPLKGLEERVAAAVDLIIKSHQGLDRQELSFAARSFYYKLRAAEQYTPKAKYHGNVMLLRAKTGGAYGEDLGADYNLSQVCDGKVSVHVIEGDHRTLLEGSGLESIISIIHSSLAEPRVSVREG
The next assay relates to PNPLA8. Particulars: HEK293T SILAC ABPP, NHU5 probe, LC-MS/MS ratio, at 5 µM, active compounds read low.
A further assay relates to PNPLA6. Particulars: HEK293T SILAC ABPP, NHU5 probe, LC-MS/MS ratio, at 5 µM, active compounds read low.
The target in assay [4] is Acyl-protein thioesterase 1 (Homo sapiens) (UniProt O75608). Particulars: HEK293T SILAC ABPP, NHU5 probe, LC-MS/MS ratio; LYPLA1; at 5 µM; active compounds read low.
Acyl-protein thioesterase 1 (Homo sapiens), sequence (O75608 whole entry, looked up): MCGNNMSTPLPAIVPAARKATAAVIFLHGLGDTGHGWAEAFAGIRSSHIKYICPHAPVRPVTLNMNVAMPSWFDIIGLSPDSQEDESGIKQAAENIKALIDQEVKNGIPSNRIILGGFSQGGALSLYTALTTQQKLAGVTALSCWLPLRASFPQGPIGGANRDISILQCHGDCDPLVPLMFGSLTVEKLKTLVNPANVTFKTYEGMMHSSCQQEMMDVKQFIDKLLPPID
In another assay the test system is PLA2G4A. Particulars: HEK293T SILAC ABPP, NHU5 probe, LC-MS/MS ratio, at 5 µM, active compounds read low.
The target in assay [5] is Dipeptidyl peptidase 9 (Homo sapiens) (UniProt Q86TI2). Particulars: HEK293T SILAC ABPP, NHU5 probe, LC-MS/MS ratio; DPP9; at 5 µM; active compounds read low.
Dipeptidyl peptidase 9 (Homo sapiens), sequence (Q86TI2 whole entry, looked up): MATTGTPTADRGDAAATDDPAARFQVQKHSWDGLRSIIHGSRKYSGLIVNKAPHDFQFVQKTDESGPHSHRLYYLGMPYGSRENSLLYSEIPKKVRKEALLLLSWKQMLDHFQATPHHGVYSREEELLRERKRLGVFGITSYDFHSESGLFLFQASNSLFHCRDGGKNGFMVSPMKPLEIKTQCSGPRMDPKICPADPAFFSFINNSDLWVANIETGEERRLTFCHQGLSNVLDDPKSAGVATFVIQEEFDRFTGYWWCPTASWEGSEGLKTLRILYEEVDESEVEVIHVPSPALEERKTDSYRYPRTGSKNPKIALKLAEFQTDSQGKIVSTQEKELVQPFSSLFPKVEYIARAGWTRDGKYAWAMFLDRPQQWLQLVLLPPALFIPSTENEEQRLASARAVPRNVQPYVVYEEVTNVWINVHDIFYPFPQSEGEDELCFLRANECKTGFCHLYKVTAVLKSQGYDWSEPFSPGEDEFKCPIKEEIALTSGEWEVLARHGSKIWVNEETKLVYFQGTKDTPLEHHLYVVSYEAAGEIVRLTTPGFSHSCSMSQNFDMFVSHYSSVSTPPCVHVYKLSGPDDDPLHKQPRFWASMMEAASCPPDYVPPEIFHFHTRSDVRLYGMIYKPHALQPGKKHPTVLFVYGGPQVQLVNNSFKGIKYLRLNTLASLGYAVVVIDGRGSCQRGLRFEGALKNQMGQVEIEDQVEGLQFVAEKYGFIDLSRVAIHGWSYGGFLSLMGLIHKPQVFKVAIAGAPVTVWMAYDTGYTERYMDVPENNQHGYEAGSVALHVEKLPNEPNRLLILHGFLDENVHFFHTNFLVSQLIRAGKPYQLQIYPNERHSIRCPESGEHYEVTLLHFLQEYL
The next assay deals with LYPLAL1. Particulars: HEK293T SILAC ABPP, NHU5 probe, LC-MS/MS ratio, at 5 µM, active compounds read low.
The subject of another assay is ABHD12. Particulars: HEK293T SILAC ABPP, NHU5 probe, LC-MS/MS ratio, at 5 µM, active compounds read low.
In assay [6] the target is Protein phosphatase methylesterase 1 (Homo sapiens) (UniProt Q9Y570). Particulars: HEK293T SILAC ABPP, NHU5 probe, LC-MS/MS ratio; PPME1; at 5 µM; active compounds read low.
Protein phosphatase methylesterase 1 (Homo sapiens), sequence (Q9Y570 whole entry, looked up): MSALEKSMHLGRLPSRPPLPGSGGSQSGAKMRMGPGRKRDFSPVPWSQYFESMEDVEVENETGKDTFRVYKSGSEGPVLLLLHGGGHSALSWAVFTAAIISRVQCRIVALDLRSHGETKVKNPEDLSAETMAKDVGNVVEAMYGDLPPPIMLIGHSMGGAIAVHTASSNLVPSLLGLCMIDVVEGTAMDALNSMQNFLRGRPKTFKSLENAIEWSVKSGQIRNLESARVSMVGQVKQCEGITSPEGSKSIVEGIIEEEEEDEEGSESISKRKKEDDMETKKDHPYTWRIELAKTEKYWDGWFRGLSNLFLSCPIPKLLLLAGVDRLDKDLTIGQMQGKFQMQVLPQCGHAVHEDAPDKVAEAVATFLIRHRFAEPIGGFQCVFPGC

Molecules are shown by their SMILES. Active and inactive are the calls of the source. How the calls were made is not given here.

Acyl-protein thioesterase 2 (Homo sapiens), sequence (O95372 whole entry, looked up): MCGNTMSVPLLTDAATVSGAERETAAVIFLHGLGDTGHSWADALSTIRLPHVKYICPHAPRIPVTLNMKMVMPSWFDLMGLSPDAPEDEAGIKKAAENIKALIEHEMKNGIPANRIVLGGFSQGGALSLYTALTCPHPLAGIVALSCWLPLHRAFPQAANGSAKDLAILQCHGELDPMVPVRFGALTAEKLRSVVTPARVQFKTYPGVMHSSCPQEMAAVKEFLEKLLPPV

For the compound `O=C(CN1CCN(C(=O)c2ccco2)CC1)Nc1cc(C(F)(F)F)ccc1Cl`, the SILAC ratio (compound/DMSO) is 1.1 (inactive) in assay [1]; 1.1 (inactive) with TPP2; 1.25 (inactive) with ABHD6; 1.08 (inactive) in the assay on ESD; 1.17 (inactive) in the assay on CTSA; 1.06 (inactive) with DDHD1. Further, the SILAC ratio (compound/DMSO) in assay [2] was 1.22 (inactive); in the assay with ABHD10, 1.1 (inactive); with PREP, 1.1 (inactive); in [3], 1.14 (inactive); in the assay on PNPLA8 it was 0.97 (inactive); with PNPLA6 it was 1.2 (inactive). Further, the SILAC ratio (compound/DMSO) in [4] was 0.21; in the assay with PLA2G4A, 1.43 (inactive); in assay [5], 1.25 (inactive); with LYPLAL1, 1.33 (inactive); with ABHD12 it was 1.43 (inactive); in [6], 1.08 (inactive).
